For series [1] the following is noted: 25° C.; cited from earlier work.
Series [2] is described as follows: Single dose parallel plasma and CSF pharmacokinetics and relative bioavailability study in rats. The series is classed as in vivo. As to conditions: both sexes, Wistar, rat, plasma. On the procedure: The pharmacokinetics study was performed in 6 healthy rats (3 males and 3 females). […] Blood samples were collected at 15 minutes, 30 minutes, and at 1, 2, 4, 6, 8, 12 and 24 hours post-dose. CSF samples were collected at 1, 2, 4, and 24 hours post-dose. All samples were analyzed using a validated analytical LC-MS method.

For series [3] the following is noted: cited from earlier work.

Converted amounts (≈) assume the structure as drawn. Read-outs that look alike come from different tables or passages of the source.

As for `COCCOC(=O)C1=C(C)NC(C)=C(C(=O)OC(C)C)C1c1cccc([N+](=O)[O-])c1` (stereo not drawn) [nimodipine, isopropyl 2-methoxyethyl 1,4-dihydro-2,6-dimethyl-4-(m-nitrophenyl)-3,5-pyridinedicarboxylate], the solubility in water in series [1] was 2.5 µg/mL (≈ 5.97 µM). The bioavailability in series [2] (0.73 mg, continuous intravenous infusion, read-out: absolute bioavailability) came to 100%; in series [2] (rats, 5.5 mg oral solution by oral gavage, Mean, read-out: Absolute Bioavailability (F %)) it was 22%. Moreover, in series [3] (man), the “half-life equivalent to earlier elimination rates” value was 1 to 2 h. The “concentration in the cerebrospinal fluid” value in series [3] (nimodipine-treated subarachnoid hemorrhage (SAH) patients) is on record as no more than 12.5 ng/mL. Further, the “Cmax in patients with hepatic cirrhosis versus normal” value in series [3] (oral administration) is reported as “approximately double”.
